Experimental data as given in PMC8849385, “ATP-responsive biomolecular condensates tune bacterial kinase signaling” (Science Advances, 2022).

Legend:
[1] = target: T1, PopZ (Caulobacter vibrioides, UniProt A0A0H3C7Y4); experiment: fluorescence microscopy of condensate dissolution; conditions: 5 μM protein, 1% Atto488 labelled; 5 mM MgCl2, 100 mM KCl, pH 7.4, 1 hour; solute effect on phase separation, no binding constant
T1 construct: full length, AA 1 to 177, C-terminal TEV-His6 cleaved; E. coli BL21(DE3)

[2] = target: T2, SpmX (ΔTM) (Caulobacter vibrioides, UniProt A0A0H3C9Y4); experiment: fluorescence microscopy of condensate dissolution; conditions: 5 μM protein, 5% Cy3 labelled; 5 mM MgCl2, 100 mM KCl, pH 7.4, 1 hour; solute effect on phase separation, no binding constant
T2 construct: cytoplasmic portion, AA 1 to 355 of 431, C-terminal TEV-His10 cleaved; E. coli BL21(DE3)
T2 sequence (A0A0H3C9Y4 entry or part of it, stated change not applied): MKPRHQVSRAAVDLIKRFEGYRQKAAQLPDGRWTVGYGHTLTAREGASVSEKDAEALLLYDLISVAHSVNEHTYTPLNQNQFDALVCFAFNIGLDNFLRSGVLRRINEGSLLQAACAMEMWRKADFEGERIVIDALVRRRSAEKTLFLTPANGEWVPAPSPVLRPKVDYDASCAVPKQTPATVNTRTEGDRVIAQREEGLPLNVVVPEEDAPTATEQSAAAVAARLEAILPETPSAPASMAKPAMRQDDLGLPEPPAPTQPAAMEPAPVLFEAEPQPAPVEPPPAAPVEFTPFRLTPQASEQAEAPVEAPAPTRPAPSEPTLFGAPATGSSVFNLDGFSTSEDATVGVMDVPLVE

T1 sequence (A0A0H3C7Y4 entry or part of it): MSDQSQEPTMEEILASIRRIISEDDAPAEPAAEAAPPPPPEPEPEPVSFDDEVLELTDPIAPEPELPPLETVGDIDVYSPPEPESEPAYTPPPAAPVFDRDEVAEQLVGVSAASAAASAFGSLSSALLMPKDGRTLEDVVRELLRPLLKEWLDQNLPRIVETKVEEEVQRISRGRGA

Nc1ncnc2c1ncn2[C@@H]1O[C@H](COP(=O)(O)OP(=O)(O)OP(=O)(O)O)[C@@H](O)[C@H]1O [ATP]
dissolution concentration of condensates [1]: 1 mM
dissolution concentration of condensates [2]: 2 mM
